{"source": "the NIST ThermoML archive (doi:10.1016/j.tca.2007.10.001)", "key": {"[1]": {"conditions": "Crystal; DTA"}, "[2]": {"test": "Molar enthalpy of transition or fusion", "conditions": "Crystal"}, "[3]": {"test": "molar heat capacity at constant pressure", "conditions": "101.33 kPa, Crystal"}}, "note": "Numbers after ± are expanded uncertainties."}
{"smiles": "c1cnc2c(c1)ccc1cccnc12", "note": "[1,10-phenanthroline]", "values": [{"measurement": "Triple point temperature", "setting": "[1]", "result": "391.1 ± 0.6", "unit": "K"}, {"measurement": "Molar enthalpy of transition or fusion", "setting": "[2]", "result": "2.82 ± 0.884", "unit": "kcal/mol"}, {"measurement": "molar heat capacity at constant pressure", "setting": "[3]; 298.2 K", "result": "115 ± 37", "unit": "J/K/mol"}, {"measurement": "molar heat capacity at constant pressure", "setting": "[3]; 300.2 K", "result": "116 ± 37", "unit": "J/K/mol"}, {"measurement": "molar heat capacity at constant pressure", "setting": "[3]; 302.2 K", "result": "117 ± 37", "unit": "J/K/mol"}, {"measurement": "molar heat capacity at constant pressure", "setting": "[3]; 304.2 K", "result": "125 ± 40", "unit": "J/K/mol"}, {"measurement": "molar heat capacity at constant pressure", "setting": "[3]; 306.2 K", "result": "127 ± 41", "unit": "J/K/mol"}, {"measurement": "molar heat capacity at constant pressure", "setting": "[3]; 308.2 K", "result": "133 ± 43", "unit": "J/K/mol"}, {"measurement": "molar heat capacity at constant pressure", "setting": "[3]; 310.2 K", "result": "140 ± 45", "unit": "J/K/mol"}, {"measurement": "molar heat capacity at constant pressure", "setting": "[3]; 312.2 K", "result": "150 ± 48", "unit": "J/K/mol"}, {"measurement": "molar heat capacity at constant pressure", "setting": "[3]; 314.2 K", "result": "156 ± 50", "unit": "J/K/mol"}, {"measurement": "molar heat capacity at constant pressure", "setting": "[3]; 316.2 K", "result": "165 ± 53", "unit": "J/K/mol"}, {"measurement": "molar heat capacity at constant pressure", "setting": "[3]; 318.2 K", "result": "175 ± 56", "unit": "J/K/mol"}, {"measurement": "molar heat capacity at constant pressure", "setting": "[3]; 320.2 K", "result": "184 ± 59", "unit": "J/K/mol"}, {"measurement": "molar heat capacity at constant pressure", "setting": "[3]; 322.2 K", "result": "192 ± 61", "unit": "J/K/mol"}, {"measurement": "molar heat capacity at constant pressure", "setting": "[3]; 324.2 K", "result": "199 ± 64", "unit": "J/K/mol"}, {"measurement": "molar heat capacity at constant pressure", "setting": "[3]; 326.2 K", "result": "206 ± 66", "unit": "J/K/mol"}, {"measurement": "molar heat capacity at constant pressure", "setting": "[3]; 328.2 K", "result": "213 ± 68", "unit": "J/K/mol"}, {"measurement": "molar heat capacity at constant pressure", "setting": "[3]; 330.2 K", "result": "221 ± 71", "unit": "J/K/mol"}, {"measurement": "molar heat capacity at constant pressure", "setting": "[3]; 332.2 K", "result": "226 ± 72", "unit": "J/K/mol"}, {"measurement": "molar heat capacity at constant pressure", "setting": "[3]; 334.2 K", "result": "235 ± 75", "unit": "J/K/mol"}, {"measurement": "molar heat capacity at constant pressure", "setting": "[3]; 336.2 K", "result": "237 ± 76", "unit": "J/K/mol"}, {"measurement": "molar heat capacity at constant pressure", "setting": "[3]; 338.2 K", "result": "245 ± 78", "unit": "J/K/mol"}, {"measurement": "molar heat capacity at constant pressure", "setting": "[3]; 340.2 K", "result": "247 ± 79", "unit": "J/K/mol"}, {"measurement": "molar heat capacity at constant pressure", "setting": "[3]; 342.2 K", "result": "253 ± 81", "unit": "J/K/mol"}, {"measurement": "molar heat capacity at constant pressure", "setting": "[3]; 344.2 K", "result": "253 ± 81", "unit": "J/K/mol"}, {"measurement": "molar heat capacity at constant pressure", "setting": "[3]; 346.2 K", "result": "256 ± 82", "unit": "J/K/mol"}, {"measurement": "molar heat capacity at constant pressure", "setting": "[3]; 348.2 K", "result": "260 ± 83", "unit": "J/K/mol"}, {"measurement": "molar heat capacity at constant pressure", "setting": "[3]; 350.2 K", "result": "263 ± 84", "unit": "J/K/mol"}, {"measurement": "molar heat capacity at constant pressure", "setting": "[3]; 352.2 K", "result": "265 ± 85", "unit": "J/K/mol"}, {"measurement": "molar heat capacity at constant pressure", "setting": "[3]; 354.2 K", "result": "270 ± 86", "unit": "J/K/mol"}, {"measurement": "molar heat capacity at constant pressure", "setting": "[3]; 356.2 K", "result": "271 ± 87", "unit": "J/K/mol"}, {"measurement": "molar heat capacity at constant pressure", "setting": "[3]; 358.2 K", "result": "276 ± 88", "unit": "J/K/mol"}, {"measurement": "molar heat capacity at constant pressure", "setting": "[3]; 360.2 K", "result": "279 ± 89", "unit": "J/K/mol"}]}
{"smiles": "Cc1ccc2ccc3ccc(C)nc3c2n1", "note": "[2,9-dimethyl-1,10-phenanthroline]", "values": [{"measurement": "Triple point temperature", "setting": "[1]", "result": "435.9 ± 1", "unit": "K"}, {"measurement": "Molar enthalpy of transition or fusion", "setting": "[2]", "result": "4.21 ± 1.2", "unit": "kcal/mol"}, {"measurement": "molar heat capacity at constant pressure", "setting": "[3]; 298.2 K", "result": "253 ± 81", "unit": "J/K/mol"}, {"measurement": "molar heat capacity at constant pressure", "setting": "[3]; 303.2 K", "result": "274 ± 88", "unit": "J/K/mol"}, {"measurement": "molar heat capacity at constant pressure", "setting": "[3]; 308.2 K", "result": "292 ± 93", "unit": "J/K/mol"}, {"measurement": "molar heat capacity at constant pressure", "setting": "[3]; 313.2 K", "result": "306 ± 98", "unit": "J/K/mol"}, {"measurement": "molar heat capacity at constant pressure", "setting": "[3]; 318.2 K", "result": "321 ± 100", "unit": "J/K/mol"}, {"measurement": "molar heat capacity at constant pressure", "setting": "[3]; 323.2 K", "result": "331 ± 110", "unit": "J/K/mol"}, {"measurement": "molar heat capacity at constant pressure", "setting": "[3]; 328.2 K", "result": "345 ± 110", "unit": "J/K/mol"}, {"measurement": "molar heat capacity at constant pressure", "setting": "[3]; 333.2 K", "result": "354 ± 110", "unit": "J/K/mol"}, {"measurement": "molar heat capacity at constant pressure", "setting": "[3]; 338.2 K", "result": "361 ± 120", "unit": "J/K/mol"}, {"measurement": "molar heat capacity at constant pressure", "setting": "[3]; 343.2 K", "result": "370 ± 120", "unit": "J/K/mol"}, {"measurement": "molar heat capacity at constant pressure", "setting": "[3]; 348.2 K", "result": "373 ± 120", "unit": "J/K/mol"}, {"measurement": "molar heat capacity at constant pressure", "setting": "[3]; 353.2 K", "result": "374 ± 120", "unit": "J/K/mol"}, {"measurement": "molar heat capacity at constant pressure", "setting": "[3]; 358.2 K", "result": "383 ± 120", "unit": "J/K/mol"}, {"measurement": "molar heat capacity at constant pressure", "setting": "[3]; 363.2 K", "result": "383 ± 120", "unit": "J/K/mol"}, {"measurement": "molar heat capacity at constant pressure", "setting": "[3]; 368.2 K", "result": "387 ± 120", "unit": "J/K/mol"}, {"measurement": "molar heat capacity at constant pressure", "setting": "[3]; 373.2 K", "result": "384 ± 120", "unit": "J/K/mol"}, {"measurement": "molar heat capacity at constant pressure", "setting": "[3]; 378.2 K", "result": "386 ± 120", "unit": "J/K/mol"}, {"measurement": "molar heat capacity at constant pressure", "setting": "[3]; 383.2 K", "result": "390 ± 120", "unit": "J/K/mol"}, {"measurement": "molar heat capacity at constant pressure", "setting": "[3]; 388.2 K", "result": "386 ± 120", "unit": "J/K/mol"}, {"measurement": "molar heat capacity at constant pressure", "setting": "[3]; 393.2 K", "result": "383 ± 120", "unit": "J/K/mol"}]}
